Patent publication US7432264B2, “Antimicrobial biaryl compounds” (Isis Pharmaceuticals, Inc., priority 2000, dated 2008)
≈ marks a conversion by molar mass, not a printed value. Read-outs that look alike come from different tables or passages of the source.

Columns and labels:
E. coli ATCC 25922 = assay: Minimum inhibitory concentration (MIC), E. coli; type: cell-based, Escherichia coli
Procedure: (§1) Bacterial Strains. The Streptococcus pyogenes strains, Klebsiella pneumoniae, Escherichia coli, Staphylococcus aureus, Enterococcus faecalis used in the antibacterial activity studies ATCC 14289, 49399, 13883, 25922, 13709, 29212, respectively, are obtained from the American Type Culture Collection, Rockville, Md. The strain E. coli imp— is a mutant strain of wild type E. coli with increased outer membrane permeability and was grown in LB broth at 37 °C. S. pyogenes strain is grown in Todd-Hewitt broth. S. aureus is grown in trypticase soy broth, E. faecalis in Todd-Hewitt broth, wild type E. coli and K. pneumoniae, in nutrient broth.
(§2) Determination of Minimum Inhibitory Concentrations (MICs). The assays were carried out in […] volume in duplicate in 96-well clear flat-bottom plates. The bacterial suspension from an overnight culture growth in appropriate medium was added to a solution of test compound in 4% DMSO in water. Final bacterial inoculum was approximately 10^5-10^6 CFU/well. The percent growth of the bacteria in test wells relative to that observed for a well containing no compound was determined by measuring absorbance at 595 nm (A595) after 24 h. […] Both ampicillin and tetracycline is used as antibiotic-positive controls in each screening assay for S. pyogenes, E. coli imp-, E. coli, S. aureus, E. faecalis, K pneumoniae and P. vulgaris. Ciprofloxacin is used as an antibiotic positive control in each screening assay for P. aeruginosa.

S. aureus ATCC 13709 = assay: Minimum inhibitory concentration (MIC), S. aureus; type: cell-based, Staphylococcus aureus
Procedure: as §1, §2

[1] = system: E. coli S30 bacterial extract (protein synthesis); type: biochemical; conditions: versus 12
Procedure: Coupled Bacterial Transcription/Translation Assay. The DNA template, pBestLuc™ (Promega), is a plasmid containing a reporter gene for firefly luciferase fused to a strong tac promoter and ribosome binding site. Messenger RNA from 1 μg pBestLuc was transcribed and translated in E. coli S30 bacterial extract in the presence or absence of test compound. Compounds were tested in a black 96 well microtiter plate with an assay volume of 35 μL. Each test well contained: 5 μL test compound, 13 μL S30 premix (Promega), 4 μL 10× complete amino acid mix (1 mM each), 5 μL E. coli S30 extract and 8 μL of […] pBestLuc™. The transcription/translation reaction was incubated for 35 minutes at 37° C. followed by detection of functional luciferase with the addition of 30 μL LucLite™ (Packard). Light output was quantitated on a Packard TopCount.

[2] = Escherichia coli, ATCC25922, 24 h, read-out: MIC (E. coli)
[3] = Staphylococcus aureus, ATCC13709, 24 h, read-out: MIC (S. aureus)
[4] = Escherichia coli, ATCC25922, read-out: MIC (E. coli) +serum
[5] = Escherichia coli, ATCC25922, read-out: MIC (E. coli) alone
[6] = Staphylococcus aureus, ATCC13709, read-out: MIC (S. aureus) +serum, with serum
[7] = Staphylococcus aureus, ATCC13709, read-out: MIC (S. aureus) alone, alone (no serum)

Which results are given for Cc1cccc(-c2ccc(C(=O)Nc3cccc(-c4ccc(C(=O)NC(C(=O)N5CCNCC5)c5ccc(OCCCN(C)C)cc5)o4)c3)cc2)c1 (stereo not drawn) [Compound 39]?
MIC (E. coli ATCC 25922; [2]): 13 to 25 mM (≈ 9100 to 17500 µg/mL); MIC (S. aureus ATCC 13709; [3]): 13 to 25 mM (≈ 9100 to 17500 µg/mL)

For CN(C)CCCOc1ccc(C(NC(=O)c2ccc(-c3cccc(NC(=O)c4ccc(-c5cccc(F)c5)cc4)c3)o2)C(=O)N2CCNCC2)cc1 (stereo not drawn), which MIC (E. coli ATCC 25922; [2]) is on record?
The MIC was 6 to 13 mM (≈ 4220 to 9150 µg/mL).

What about the MIC (S. aureus ATCC 13709; [3]) of the same compound?
The MIC was 3 to 6 mM (≈ 2110 to 4220 µg/mL).

How did the MIC (E. coli ATCC 25922; [2]) turn out when CN(C)CCCOc1ccc(C(NC(=O)c2ccc(-c3cccc(NC(=O)c4ccc(-c5ccccc5)cc4)c3)o2)C(=O)N2CCN(S(C)(=O)=O)CC2)cc1 (stereo not drawn) [Compound 71] was run?
Its MIC is > 100 mM.

And the MIC (S. aureus ATCC 13709; [3])?
The MIC was > 100 mM.

How did the MIC (E. coli ATCC 25922; [2]) turn out when CN(C)CCCOc1ccc(C(NC(=O)c2ccc(-c3cccc(NC(=O)c4ccc(-c5ccccc5)cc4)c3)o2)C(=O)N2CCN(C)CC2)cc1 (stereo not drawn) [Compound 70] was run?
Its MIC is 25 to 50 mM (≈ 17500 to 35000 µg/mL).

What about the MIC (S. aureus ATCC 13709; [3]) of the same compound?
The MIC was 25 to 50 mM (≈ 17500 to 35000 µg/mL).

Which results are given for CN(C)CCCOc1ccc(C(NC(=O)c2ccc(-c3cccc(NC(=O)c4ccc(-c5cccc(Cl)c5)cc4)c3)o2)C(=O)N2CCNCC2)cc1 (stereo not drawn) [Compound 48]?
MIC (E. coli ATCC 25922; [2]): 13 to 25 mM (≈ 9360 to 18000 µg/mL); MIC (S. aureus ATCC 13709; [3]): 13 to 25 mM (≈ 9360 to 18000 µg/mL)

How did the “fold less potent than 12” value [1] turn out when CN(C)CCCOc1ccc(C(NC(=O)c2ccc(-c3cccc(NC(=O)c4ccc5[nH]c(=O)c(=O)[nH]c5c4)c3)o2)C(N)=O)cc1 (stereo not drawn) [Compound 21] was run?
Its value is ~3 fold.

Cc1ccccc1-c1ccc(C(=O)Nc2cccc(-c3ccc(C(=O)NC(C(=O)N4CCNCC4)c4ccc(OCCCN(C)C)cc4)o3)c2)cc1 (stereo not drawn) [Compound 38] was tested. Which MIC (E. coli ATCC 25922; [2]) did it give?
Its MIC is 3 to 6 mM (≈ 2100 to 4200 µg/mL).

And the MIC (S. aureus ATCC 13709; [3])?
Its MIC is 3 to 6 mM (≈ 2100 to 4200 µg/mL).

With Cc1cccc(-c2ccc(C(=O)Nc3cccc(-c4ccc(C(=O)NC(C(=O)N5CCNCC5)c5ccc(OCCCN(C)C)cc5)o4)c3)cc2)c1C (stereo not drawn) [Compound 42] as the compound, how does the MIC (E. coli ATCC 25922; Escherichia coli, ATCC25922, 24 h; read-out: MIC (E. coli)) read?
Its MIC is 13 to 25 mM (≈ 9280 to 17800 µg/mL).

And the MIC (S. aureus ATCC 13709; Staphylococcus aureus, ATCC13709, 24 h; read-out: MIC (S. aureus))?
Its MIC is 3 to 6 mM (≈ 2140 to 4280 µg/mL).

Which MIC (E. coli ATCC 25922; [2]) does the source give for CN(C)CCCOc1ccc(C(NC(=O)c2ccc(-c3cccc(NC(=O)c4ccc(-c5ccc(F)cc5F)cc4)c3)o2)C(=O)N2CCNCC2)cc1 (stereo not drawn) [Compound 55] here?
The MIC was 25 to 50 mM (≈ 18000 to 36100 µg/mL).

What about the MIC (S. aureus ATCC 13709; [3]) of the same compound?
The MIC was 6 to 13 mM (≈ 4330 to 9380 µg/mL).

Which results are given for CC(=O)c1ccccc1-c1ccc(C(=O)Nc2cccc(-c3ccc(C(=O)NC(C(=O)N4CCNCC4)c4ccc(OCCCN(C)C)cc4)o3)c2)cc1 (stereo not drawn)?
MIC (E. coli ATCC 25922; [2]): > 100 mM; MIC (S. aureus ATCC 13709; [3]): 6 to 13 mM (≈ 4370 to 9460 µg/mL)

For CN(C)CCCCC(NC(=O)c1ccc(-c2cccc(NC(=O)c3ccc(-c4ccccc4)cc3)c2)o1)C(=O)N1CCNCC1 (stereo not drawn) [Compound 68], which MIC (E. coli ATCC 25922; [2]) is on record?
Its MIC is 50 to 100 mM (≈ 30400 to 60800 µg/mL).

And the MIC (S. aureus ATCC 13709; [3])?
The MIC was 25 to 50 mM (≈ 15200 to 30400 µg/mL).

What does the source list for CN(C)CCCOc1ccc(C(NC(=O)c2ccc(-c3cccc(NC(=O)c4ccc(-c5ccccc5)cc4)c3)o2)C(=O)N2CCNCC2)cc1 (stereo not drawn) [drawing 88]?
MIC (E. coli ATCC 25922; [4]): 50 to 100 mM (≈ 34300 to 68600 µg/mL); MIC (E. coli ATCC 25922; [5]): 6 to 13 mM (≈ 4110 to 8920 µg/mL); MIC (S. aureus ATCC 13709; [6]): 50 to 100 mM (≈ 34300 to 68600 µg/mL); MIC (S. aureus ATCC 13709; [7]): 3 to 6 mM (≈ 2060 to 4110 µg/mL)

Which MIC (E. coli ATCC 25922; [4]) does the source give for CN(C)CCCOc1ccc(C(NC(=O)c2ccc(-c3cccc(N(C)Cc4ccc(-c5ccccc5)cc4)c3)o2)C(=O)N2CCNCC2)cc1 (stereo not drawn) [drawing 89] here?
Its MIC is > 100 mM.

And the MIC (E. coli ATCC 25922; [5])?
Its MIC is 6 to 13 mM (≈ 4120 to 8920 µg/mL).

And the MIC (S. aureus ATCC 13709; [6])?
The MIC was 50 to 100 mM (≈ 34300 to 68600 µg/mL).

What about the MIC (S. aureus ATCC 13709; [7]) of the same compound?
The MIC was 3 to 6 mM (≈ 2060 to 4120 µg/mL).

With Cc1cccc(C)c1-c1ccc(C(=O)Nc2cccc(-c3ccc(C(=O)NC(C(=O)N4CCNCC4)c4ccc(OCCCN(C)C)cc4)o3)c2)cc1 (stereo not drawn) [Compound 44] as the compound, how does the MIC (E. coli ATCC 25922; [2]) read?
Its MIC is 25 to 50 mM (≈ 17800 to 35700 µg/mL).

And the MIC (S. aureus ATCC 13709; [3])?
Its MIC is 13 to 25 mM (≈ 9280 to 17800 µg/mL).

With CN(C)CCCOc1ccc(C(NC(=O)c2ccc(-c3cccc(NC(=O)c4ccc(-c5ccccc5)cc4Cl)c3)o2)C(=O)N2CCNCC2)cc1 (stereo not drawn) [Compound 60] as the compound, how does the MIC (E. coli ATCC 25922; [2]) read?
The MIC was 6 to 13 mM (≈ 4320 to 9360 µg/mL).

And the MIC (S. aureus ATCC 13709; [3])?
Its MIC is 25 to 50 mM (≈ 18000 to 36000 µg/mL).

CN(C)CCCOc1ccc(C(NC(=O)c2ccc(-c3cccc(NC(=O)c4ccc(-c5ccccc5Cl)cc4)c3)o2)C(=O)N2CCNCC2)cc1 (stereo not drawn) [Compound 47] was tested. Which MIC (E. coli ATCC 25922; [2]) did it give?
Its MIC is 6 to 13 mM (≈ 4320 to 9360 µg/mL).

What about the MIC (S. aureus ATCC 13709; [3]) of the same compound?
The MIC was 25 to 50 mM (≈ 18000 to 36000 µg/mL).

CC(=O)NCC1CN(c2ccc(N3CCOCC3)c(F)c2)C(=O)O1 (stereo not drawn) was tested. Which MIC (E. coli ATCC 25922; Escherichia coli, ATCC25922; alone (no serum); read-out: MIC (E. coli) alone) did it give?
The MIC was 2 to 3 mM (≈ 675 to 1010 µg/mL).

What about the MIC (E. coli ATCC 25922; Escherichia coli, ATCC25922; with serum; read-out: MIC (E. coli) +serum) of the same compound?
The MIC was 3 to 6 mM (≈ 1010 to 2020 µg/mL).

And the MIC (S. aureus ATCC 13709; Staphylococcus aureus, ATCC13709; alone (no serum); read-out: MIC (S. aureus) alone)?
The MIC was 2 mM (≈ 675 µg/mL).

And the MIC (S. aureus ATCC 13709; Staphylococcus aureus, ATCC13709; with serum; read-out: MIC (S. aureus) +serum)?
The MIC was 2 to 3 mM (≈ 675 to 1010 µg/mL).
